Source: US12514928B2, “Herboxidiene antibody-drug conjugates and methods of use” (Eisai R&D Management Co., Ltd., priority 2018, dated 2026)
Where two headings read alike, the source gives them in different places.

Assays:
[1] = test system: HCC1954 breast cancer cells; experiment: Payload cell viability dose response (CellTiter-Glo 2.0), HCC1954 (Example 4); assay type: cell-based, human; details: for GI50: Homo sapiens
Experimental: (§1) Cell viability dose response was determined for exemplary payload compounds in HER2-amplified HCC1954 breast cancer cells and NCI-N87 gastric cancer cells.
(§2) HCC1954 (American Type Culture Collection (ATCC)) breast ductal carcinoma or NCI-N87 (ATCC) gastric carcinoma cells were plated at 500 cells/well in flat bottom 384-well tissue culture plates (Corning) in a total volume of 30 μL tissue culture medium supplemented with 10% fetal bovine serum (ThermoFisher Scientific). Cells were treated with a 4-fold serial dilution of compound from 10000 nM to 0.01 nM. Each concentration was tested in triplicate. At the time of treatment, a plate of untreated cells was evaluated using CellTiter-Glo® 2.0 Luminescent Cell Viability Assay according to the manufacturer's recommendations (Promega; #G9241). CellTiter-Glo® 2.0 reagent was added to the medium, incubated, and assayed on an EnVision Multilabel Reader (PerkinElmer). Values represent time zero (T0). The number of viable cells following 72 (T72) or 144 hours (T144) of compound treatment was also determined using the CellTiter-Glo®2.0 Luminescent Cell Viability Assay. Using the luminescence value at time zero (T0), DMSO control growth (C), and test growth in the presence of compound (T72 or T144), the percentage growth was calculated at each of the compound concentrations levels. Percentage growth inhibition was calculated as (e.g.): [(T144−T0)/(C−T0)]×100 for concentrations for which T144>/=T0 or [(T144−T0)/T0]×100 for concentrations for which T144<T0. The dose response curve plots were generated using Prism 8 (Graphpad) and fit using nonlinear regression analysis and the log(inhibitor) versus response-variable slope (four parameters).

[2] = test system: NCI-N87 gastric cancer cells; experiment: Payload cell viability dose response (CellTiter-Glo 2.0), NCI-N87 (Example 4); assay type: cell-based, human; details: for GI50: Homo sapiens
Experimental: as §1, §2

[3] = test system: SLC25A19 mature transcript; experiment: In-cell splicing PD assay, HCC1954; assay type: cell-based; details: Homo sapiens, HCC1954, 6 h
Experimental: (§3) 4.1.2 In-Cell Splicing PD Assay
(§4) Splicing of the SLC25A19 mature transcript was also examined in HCC1954 and NCI-N87 cells treated with increasing concentrations of exemplary payload compounds.
(§5) HCC1954 or NCI-N87 cells (ATCC) were plated in RPM1+10% FBS media (ATCC) at 1000 cells per well at 20 μL per well. Cells were treated with compounds in a 4-fold dilution dose-response. After 6 hours, cells were PBS washed and lysed with 30 μL of CL buffer (IgePal CA-630, 5M NaCl, 1M Tris HCl 1M pH 7.4 in water) containing 25 μL/mL of RNAsin (Promega) and incubated for 20 min at RT on a rocker. Resulting mixture (1 μL) was used to assess splicing modulation in a Taqman Fast Virus 1-Step MasterMix (Applied Biosystems) reverse transcription PCR reaction with the following Taqman primers according to the manufacturer's recommendations: SLC25A19 (Invitrogen, Hs00222265_m1); RPLPO (Invitrogen, Hs99999902_m1).

[4] = test system: SLC25A19 mature transcript; experiment: In-cell splicing PD assay, NCI-N87; assay type: cell-based; details: Homo sapiens, NCI-N87, 6 h
Experimental: as §3, §4, §5

[5] = HCC1954, 72 h, read-out: CTG 72 h GI50
[6] = HCC1954, 144 h, read-out: CTG 144 h GI50
[7] = NCI-N87, 72 h, read-out: CTG 72 h GI50
[8] = NCI-N87, 144 h, read-out: CTG 144 h GI50

Compound	CTG 72 h LD50 ([1]; HCC1954, 72 h)	CTG 72 h Rmin ([1]; HCC1954, 72 h)	CTG 144 h LD50 ([1]; HCC1954, 144 h)	CTG 144 h Rm in ([1]; HCC1954, 144 h)	GI50 [1, 5]	GI50 [1, 6]	GI50 [2, 7]	GI50 [2, 8]	CTG 72 h LD50 ([2]; NCI-N87, 72 h)	CTG 72 h Rmin ([2]; NCI-N87, 72 h)	CTG 144 h LD50 ([2]; NCI-N87, 144 h)	CTG 144 h Rmin ([2]; NCI-N87, 144 h)	IC50 [3]	IC50 [4]
CO[C@H]([C@@H](C)[C@H]1O[C@]1(C)C[C@H](C)/C=C/C=C(\C)[C@H]1O[C@@H](CC(=O)N[C@@H](COC(=O)N2CCN(C)CC2)C(=O)O)CC[C@@H]1C)[C@@H](C)O [Compound H13]	> 10 µM	−54.164%	690.614 nM	−97.151%	190 nM	210 nM	53.9 nM	115 nM	> 10 µM	−15.164%	2784.969 nM	−80.613%	320 nM	108 nM
CO[C@H]([C@@H](C)[C@H]1O[C@]1(C)C[C@H](C)/C=C/C=C(\C)[C@H]1O[C@@H](CC(=O)N[C@@H](CCOC(=O)N2CCN(C)CC2)C(=O)O)CC[C@@H]1C)[C@@H](C)O [Compound H14]	> 10 µM	−42.359%	2055.923 nM	−95.522%	626 nM	682 nM	415 nM	730 nM	> 10 µM	−2.467%	7944.263 nM	−63.41%	1350 nM	962 nM
CO[C@H]([C@@H](C)[C@H]1O[C@]1(C)C[C@H](C)/C=C/C=C(\C)[C@H]1O[C@@H](CC(=O)N[C@@H](CCNC(=O)N2CCN(C)CC2)C(=O)O)CC[C@@H]1C)[C@@H](C)O [Compound H15]	> 10 µM	−44.191%	31.77 nM	−95.522%	18.1 nM	11.7 nM	6 nM	3.5 nM	> 10 µM	−18.031%	106.186 nM	−82.661%	37.1 nM	15.4 nM
COC(=O)[C@H](CCNC(=O)N1CCN(C)CC1)NC(=O)C[C@H]1CC[C@H](C)[C@@H](/C(C)=C/C=C/[C@@H](C)C[C@@]2(C)O[C@@H]2[C@H](C)[C@@H](OC)[C@@H](C)O)O1 [Compound H16]	> 10 µM	−65.968%	22.316 nM	−98.779%	11.8 nM	8.98 nM	6.76 nM	3.62 nM	> 10 µM	−21.717%	98.186 nM	−86.757%	16.7 nM	8.55 nM
CO[C@H]([C@@H](C)[C@H]1O[C@]1(C)C[C@H](C)/C=C/C=C(\C)[C@H]1O[C@@H](CC(=O)N[C@@H](CCCOC(=O)N2CCN(C)CC2)C(=O)O)CC[C@@H]1C)[C@@H](C)O [Compound H17]	> 10 µM	−48.872%	275.218 nM	−96.54%	139 nM	126 nM	47 nM	81.3 nM	> 10 µM	−15.164%	912.895 nM	−65.458%	135 nM	114 nM
CO[C@H]([C@@H](C)[C@H]1O[C@]1(C)C[C@H](C)/C=C/C=C(\C)[C@H]1O[C@@H](CC(=O)N[C@H](CCCOC(=O)N2CCN(C)CC2)C(=O)O)CC[C@@H]1C)[C@@H](C)O [Compound H18]	> 10 µM	−20.785%	1606.048 nM	−88.195%	624 nM	436 nM	300 nM	313 nM	> 10 µM	−12.297%	3937.618 nM	−60.543%	1680 nM	464 nM
CO[C@H]([C@@H](C)[C@H]1O[C@]1(C)C[C@H](C)/C=C/C=C(\C)[C@H]1O[C@@H](CC(=O)NCCCC[C@@H](NC(=O)N2CCN(C)CC2)C(=O)O)CC[C@@H]1C)[C@@H](C)O [Compound H19]	> 10 µM	32.813%	> 10000 nM	27.17%	8990 nM	7930 nM	> 10000 nM	3270 nM	> 10 µM	44.396%	> 10000 nM	17.442%	> 10000 nM	> 10000 nM
COC(=O)[C@@H](CCCCNC(=O)C[C@H]1CC[C@H](C)[C@@H](/C(C)=C/C=C/[C@@H](C)C[C@@]2(C)O[C@@H]2[C@H](C)[C@@H](OC)[C@@H](C)O)O1)NC(=O)N1CCN(C)CC1 [Compound H20]	> 10 µM	−44.802%	98.861 nM	−94.301%	40.4 nM	36.4 nM	29.4 nM	21 nM	> 10 µM	−62.676%	532.734 nM	−94.539%	51.4 nM	56.2 nM
COC(=O)[C@@H](CCCCNC(=O)N1CCN(C)CC1)NC(=O)C[C@H]1CC[C@H](C)[C@@H](/C(C)=C/C=C/[C@@H](C)C[C@@]2(C)O[C@@H]2[C@H](C)[C@@H](OC)[C@@H](C)O)O1 [Compound H21]	> 10 µM	−54.164%	127.893 nM	−97.761%	81.4 nM	50 nM	35.5 nM	40.9 nM	> 10 µM	−7.791%	654.736 nM	−86.347%	157 nM	87.5 nM
CO[C@H]([C@@H](C)[C@H]1O[C@]1(C)C[C@H](C)/C=C/C=C(\C)[C@H]1O[C@@H](CNC(=O)[C@H]2CC[C@H](COC(=O)N3CCN(C)CC3)CC2)CC[C@@H]1C)[C@@H](C)O [Compound H22]	> 10 µM	82.229%	> 10000 nM	71.431%	> 10000 nM	> 10000 nM	> 10000 nM	5100 nM	> 10 µM	48.181%	> 10000 nM	29.113%	> 10000 nM	> 10000 nM
